In brackets after ≈: the same amount, converted by molar mass.
Assays:
Assay in all cases: MIC, microdilution broth method (NCCLS)
Format in all cases: cell-based
E. coli OC2605 = details: 35° C., 16-20 hours; for MIC: Escherichia coli
Method: (§1) Minimal inhibitory concentration (MIC) has been an indicator of in vitro antibacterial activity widely used in the art. The in vitro antimicrobial activity of the compounds was determined by the microdilution broth method following the test method from the National Committee for Clinical Laboratory Standards (NCCLS). This method is described in the NCCLS Document M7-A4, Vol.17, No.2, “Methods for Dilution Antimicrobial Susceptibility Test for Bacteria that Grow Aerobically—Fourth Edition”, which is incorporated herein by reference.
(§2) In this method two-fold serial dilutions of drug in cation adjusted Mueller-Hinton broth are added to wells in microdilution trays. The test organisms are prepared by adjusting the turbidity of actively growing broth cultures so that the final concentration of test organism after it is added to the wells is approximately 5×10^4 CFU/well.
(§3) Following inoculation of the microdilution trays, the trays are incubated at 35° C. for 16-20 hours and then read. […] The amount of growth in the wells containing the test compound is compared with the amount of growth in the growth-control wells (no test compound) used in each tray. As set forth in Table 1, compounds of the present invention were tested against a variety of Gram positive and Gram negative pathogenic bacteria resulting in a range of activities depending on the organism tested.

E. faecalis ATCC29212 = details: 35° C., 16-20 hours; for MIC: Enterococcus faecalis
Method: as §1, §2, §3

H. influenzae ATCC49247 = details: 35° C., 16-20 hours; for MIC: Haemophilus influenzae
Method: as §1, §2, §3

S. aureus ATCC29213 = details: 35° C., 16-20 hours; for MIC: Staphylococcus aureus
Method: as §1, §2, §3

S. pneumoniae ATCC49619 = details: 35° C., 16-20 hours; for MIC: Streptococcus pneumoniae
Method: as §1, §2, §3

Row | SMILES | MIC (μg/mL) A (E. coli OC2605) [µg/mL] | MIC (μg/mL) C (E. faecalis ATCC29212) [µg/mL] | MIC (μg/mL) E (H. influenzae ATCC49247) [µg/mL] | MIC (μg/mL) B (S. aureus ATCC29213) [µg/mL] | MIC (μg/mL) D (S. pneumoniae ATCC49619) [µg/mL] | MIC (E. coli OC2605) [µg/mL] | MIC (E. faecalis ATCC29212) [µg/mL] | MIC (H. influenzae ATCC49247) [µg/mL] | MIC (S. aureus ATCC29213) [µg/mL] | MIC (S. pneumoniae ATCC49619) [µg/mL]
1 | CCC1OC(=O)C(C)C(=O)C(C)C(OC2OC(C)CC(N(C)C)C2O)C(C)(OC(N)=O)CC(C)C(=O)C(C)C2CC(=O)OC12C (stereo not shown) [Compound 1] | >16 | 2 (≈ 3.12 µM) | >16 | 8 (≈ 12.5 µM) | 0.5 (≈ 0.78 µM) |  |  |  |  | 
2 | CCC1OC(=O)C(C)C(=O)C(C)C(OC2OC(C)CC(N(C)C)C2O)C(C)(OC(=O)NCc2ccc3ncccc3c2)CC(C)C(=O)C(C)C2CC(=O)OC12C (stereo not shown) [Compound 3] | >16 | 0.25 (≈ 0.32 µM) | 8 (≈ 10.2 µM) | 1 (≈ 1.28 µM) | 0.06 (≈ 0.0767 µM) |  |  |  |  | 
3 | CCC1OC(=O)C(C)C(=O)C(C)C(OC2OC(C)CC(N(C)C)C2O)C(C)(OC(=O)NCC=Cc2cnc3ccccc3c2)CC(C)C(=O)C(C)C2CC(=O)OC12C (stereo not shown) [Compound 5] | 16 (≈ 19.8 µM) | 0.06 (≈ 0.0743 µM) | 16 (≈ 19.8 µM) | 0.5 (≈ 0.619 µM) | 0.03 (≈ 0.0371 µM) |  |  |  |  | 
4 | CCC1OC(=O)C(C)C(=O)C(C)C(OC2OC(C)CC(N(C)C)C2O)C(C)(OC(=O)NCC=Cc2ccc(-c3ccccn3)cc2)CC(C)C(=O)C(C)C2C(OC)C(=O)OC12C (stereo not shown) [Compound 6] | >16 | 1 (≈ 1.16 µM) | 8 (≈ 9.26 µM) | 1 (≈ 1.16 µM) | 0.25 (≈ 0.289 µM) |  |  |  |  | 
5 | CCC1OC(=O)C(C)C(=O)C(C)C(OC2OC(C)CC(N(C)C)C2O)C(C)(OC(=O)NCC=Cc2ccc3cccnc3c2)CC(C)C(=O)C(C)C2C(OC)C(=O)OC12C (stereo not shown) [Compound 10] | >16 | 0.5 (≈ 0.597 µM) | 8 (≈ 9.55 µM) | 1 (≈ 1.19 µM) | 0.12 (≈ 0.143 µM) |  |  |  |  | 
6 | CCC1OC(=O)C(C)C(=O)C(C)C(OC2OC(C)CC(N(C)C)C2O)C(C)(OC(=O)N(CC=Cc2cncc(-c3ccccn3)c2)CC=Cc2cncc(-c3ccccn3)c2)CC(C)C(=O)C(C)C2CC(=O)OC12C (stereo not shown) [Compound 12] | >16 | 0.5 (≈ 0.486 µM) | 16 (≈ 15.5 µM) | 2 (≈ 1.94 µM) | 0.12 (≈ 0.117 µM) |  |  |  |  | 
7 | CCC1OC(=O)C(C)C(=O)C(C)C(OC2OC(C)CC(N(C)C)C2O)C(C)(OC(=O)NCC=Cc2cccc(-c3ccccn3)c2)CC(C)C(=O)C(C)C2CC(=O)OC12C (stereo not shown) [Compound 13] | >16 | 0.25 (≈ 0.3 µM) | 4 (≈ 4.8 µM) | 1 (≈ 1.2 µM) | 0.06 (≈ 0.0719 µM) |  |  |  |  | 
8 | CC[C@H]1OC(=O)[C@H](C)C(=O)[C@H](C)[C@@H](O[C@@H]2O[C@H](C)C[C@H](N(C)C)[C@H]2O)[C@](C)(OC(=O)NC/C=C/c2ccc(-n3cnnc3)cc2)C[C@@H](C)C(=O)C(C)[C@H]2CC(=O)O[C@@]21C (stereo partly shown) [Compound 16] | 16 (≈ 19.4 µM) | 0.25 (≈ 0.303 µM) | 4 (≈ 4.85 µM) | 0.5 (≈ 0.607 µM) | 0.06 (≈ 0.0728 µM) |  |  |  |  | 
9 | CC[C@H]1OC(=O)[C@H](C)C(=O)[C@H](C)[C@@H](OC2O[C@H](C)C[C@H](N(C)C)[C@H]2O)[C@](C)(OC(=O)NC/C=C/c2cn(-c3cnccn3)cn2)C[C@@H](C)C(=O)C(C)C2CC(=O)O[C@@]21C (stereo partly shown) [Compound 17] |  |  |  |  |  | > 16 | 0.12 (≈ 0.145 µM) | 4 (≈ 4.85 µM) | 0.5 (≈ 0.606 µM) | 0.06 (≈ 0.0727 µM)
10 | CCC1OC(=O)C(C)C(=O)C(C)C(OC2OC(C)CC(N(C)C)C2O)C(C)(OC(=O)NCC#Cc2cccnc2)CC(C)C(=O)C(C)C2CC(=O)OC12C (stereo not shown) [Compound 18] | >16 | 0.5 (≈ 0.661 µM) | 8 (≈ 10.6 µM) | 2 (≈ 2.65 µM) | 0.12 (≈ 0.159 µM) |  |  |  |  | 
11 | CCC1OC(=O)C(C)C(=O)C(C)C(OC2OC(C)CC(N(C)C)C2O)C(C)(OC(=O)NCc2ccc(Br)cc2)CC(C)C(=O)C(C)C2CC(=O)OC12C (stereo not shown) [Compound 20] | >16 | 0.5 (≈ 0.617 µM) | 16 (≈ 19.8 µM) | 2 (≈ 2.47 µM) | 0.12 (≈ 0.148 µM) |  |  |  |  | 
12 | CCC1OC(=O)C(C)C(=O)C(C)C(OC2OC(C)CC(N(C)C)C2O)C(C)(OC(=O)NCC=Cc2ccc(Br)cc2)CC(C)C(=O)C(C)C2CC(=O)OC12C (stereo not shown) [Compound 22] | 16 (≈ 19.1 µM) | 0.25 (≈ 0.299 µM) | 4 (≈ 4.79 µM) | 1 (≈ 1.2 µM) | 0.06 (≈ 0.0718 µM) |  |  |  |  | 
13 | CCC1OC(=O)C(C)C(=O)C(C)C(OC2OC(C)CC(N(C)C)C2O)C(C)(OC(=O)N(CC=Cc2ccc(Br)cc2)CC=Cc2ccc(Br)cc2)CC(C)C(=O)C(C)C2CC(=O)OC12C (stereo not shown) [Compound 23] | >16 | 2 (≈ 1.94 µM) | >16 | 8 (≈ 7.76 µM) | 2 (≈ 1.94 µM) |  |  |  |  | 
14 | CCC1OC(=O)C(C)C(=O)C(C)C(OC2OC(C)CC(N(C)C)C2O)C(C)(OC(=O)NCC=Cc2ccc3ncccc3c2)CC(C)C(=O)C(C)C2CC(=O)OC12C (stereo not shown) [Compound 27] | 16 (≈ 19.8 µM) | 0.06 (≈ 0.0743 µM) | 1 (≈ 1.24 µM) | 0.5 (≈ 0.619 µM) | 0.03 (≈ 0.0371 µM) |  |  |  |  | 
15 | CC[C@H]1OC(=O)[C@H](C)C(=O)[C@H](C)[C@@H](OC2O[C@H](C)C[C@H](N(C)C)[C@H]2O)[C@](C)(OC(=O)NC/C=C/c2cncc3ccccc23)C[C@@H](C)C(=O)C(C)C2CC(=O)O[C@@]21C (stereo partly shown) [Compound 30] |  |  |  |  |  | 16 (≈ 19.8 µM) | 0.12 (≈ 0.149 µM) | 2 (≈ 2.48 µM) | 0.25 (≈ 0.309 µM) | 

Next, values leading:

Row | MIC (μg/mL) A (E. coli OC2605) [µg/mL] | MIC (μg/mL) C (E. faecalis ATCC29212) [µg/mL] | MIC (μg/mL) E (H. influenzae ATCC49247) [µg/mL] | MIC (μg/mL) B (S. aureus ATCC29213) [µg/mL] | MIC (μg/mL) D (S. pneumoniae ATCC49619) [µg/mL] | MIC (E. coli OC2605) [µg/mL] | MIC (E. faecalis ATCC29212) [µg/mL] | MIC (H. influenzae ATCC49247) [µg/mL] | MIC (S. aureus ATCC29213) [µg/mL] | MIC (S. pneumoniae ATCC49619) [µg/mL] | SMILES
16 | >16 | 0.12 (≈ 0.148 µM) | 16 (≈ 19.8 µM) | 1 (≈ 1.24 µM) | 0.06 (≈ 0.0742 µM) |  |  |  |  |  | CCC1OC(=O)C(C)C(=O)C(C)C(OC2OC(C)CC(N(C)C)C2O)C(C)(OC(=O)NCc2ccc(-c3cncnc3)cc2)CC(C)C(=O)C(C)C2CC(=O)OC12C (stereo not shown) [Compound 2]
17 | >16 | 8 (≈ 10.3 µM) | >16 | >16 | 1 (≈ 1.29 µM) |  |  |  |  |  | CCC1OC(=O)C(C)C(=O)C(C)C(OC2OC(C)CC(N(C)C)C2O)C(C)(OC(=O)NCc2ccc(C(=O)O)cc2)CC(C)C(=O)C(C)C2CC(=O)OC12C (stereo not shown) [Compound 4]
18 |  |  |  |  |  | > 16 | 0.12 (≈ 0.144 µM) | 8 (≈ 9.58 µM) | 0.25 (≈ 0.299 µM) | 0.06 (≈ 0.0719 µM) | CC[C@H]1OC(=O)[C@H](C)C(=O)[C@H](C)[C@@H](OC2O[C@H](C)C[C@H](N(C)C)[C@H]2O)[C@](C)(OC(=O)NC/C=C/c2ccc(-c3ncccn3)cc2)C[C@@H](C)C(=O)C(C)C2CC(=O)O[C@@]21C (stereo partly shown) [Compound 7]
19 | >16 | 0.25 (≈ 0.299 µM) | 8 (≈ 9.58 µM) | 0.5 (≈ 0.599 µM) | 0.06 (≈ 0.0719 µM) |  |  |  |  |  | CCC1OC(=O)C(C)C(=O)C(C)C(OC2OC(C)CC(N(C)C)C2O)C(C)(OC(=O)NCC=Cc2ccc(-c3cncnc3)cc2)CC(C)C(=O)C(C)C2CC(=O)OC12C (stereo not shown) [Compound 9]
20 | >16 | 0.12 (≈ 0.144 µM) | 4 (≈ 4.79 µM) | 0.5 (≈ 0.599 µM) | 0.06 (≈ 0.0719 µM) |  |  |  |  |  | CCC1OC(=O)C(C)C(=O)C(C)C(OC2OC(C)CC(N(C)C)C2O)C(C)(OC(=O)NCC=Cc2cncc(-c3ccccn3)c2)CC(C)C(=O)C(C)C2CC(=O)OC12C (stereo not shown) [Compound 11]
21 | >16 | 0.5 (≈ 0.6 µM) | 8 (≈ 9.59 µM) | 2 (≈ 2.4 µM) | 0.12 (≈ 0.144 µM) |  |  |  |  |  | CCC1OC(=O)C(C)C(=O)C(C)C(OC2OC(C)CC(N(C)C)C2O)C(C)(OC(=O)NCC=Cc2cccc(-c3cccnc3)c2)CC(C)C(=O)C(C)C2CC(=O)OC12C (stereo not shown) [Compound 14]
22 | >16 | 0.25 (≈ 0.3 µM) | 8 (≈ 9.59 µM) | 1 (≈ 1.2 µM) | 0.12 (≈ 0.144 µM) |  |  |  |  |  | CCC1OC(=O)C(C)C(=O)C(C)C(OC2OC(C)CC(N(C)C)C2O)C(C)(OC(=O)NCC=Cc2ccc(-c3ccccn3)cc2)CC(C)C(=O)C(C)C2CC(=O)OC12C (stereo not shown) [Compound 15]
23 | >16 | 1 (≈ 1.37 µM) | >16 | 16 (≈ 21.9 µM) | 0.25 (≈ 0.342 µM) |  |  |  |  |  | CCC1OC(=O)C(C)C(=O)C(C)C(OC2OC(C)CC(N(C)C)C2O)C(C)(OC(=O)NCc2ccccc2)CC(C)C(=O)C(C)C2CC(=O)OC12C (stereo not shown) [Compound 19]
24 | >16 | 1 (≈ 1.2 µM) | 8 (≈ 9.6 µM) | 2 (≈ 2.4 µM) | 0.25 (≈ 0.3 µM) |  |  |  |  |  | CCC1OC(=O)C(C)C(=O)C(C)C(OC2OC(C)CC(N(C)C)C2O)C(C)(OC(=O)NCc2ccc(C=Cc3ccccc3)cc2)CC(C)C(=O)C(C)C2CC(=O)OC12C (stereo not shown) [Compound 21]
25 | >16 | 0.12 (≈ 0.149 µM) | 8 (≈ 9.9 µM) | 1 (≈ 1.24 µM) | 0.06 (≈ 0.0743 µM) |  |  |  |  |  | CCC1OC(=O)C(C)C(=O)C(C)C(OC2OC(C)CC(N(C)C)C2O)C(C)(OC(=O)NCc2ccc(-c3ccccn3)cc2)CC(C)C(=O)C(C)C2CC(=O)OC12C (stereo not shown) [Compound 26]
